Reference: ChEMBL document CHEMBL1201862, “PubChem BioAssay data set” (2004)
The source made the active and inactive calls.

Key:
Cytochrome P450 1A2 = target: T1, Cytochrome P450 1A2 (Homo sapiens, UniProt P05177);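 further: PubChem cytochrome P450 panel assay, CYP1A2 panel member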
T1 sequence (P05177 whole entry): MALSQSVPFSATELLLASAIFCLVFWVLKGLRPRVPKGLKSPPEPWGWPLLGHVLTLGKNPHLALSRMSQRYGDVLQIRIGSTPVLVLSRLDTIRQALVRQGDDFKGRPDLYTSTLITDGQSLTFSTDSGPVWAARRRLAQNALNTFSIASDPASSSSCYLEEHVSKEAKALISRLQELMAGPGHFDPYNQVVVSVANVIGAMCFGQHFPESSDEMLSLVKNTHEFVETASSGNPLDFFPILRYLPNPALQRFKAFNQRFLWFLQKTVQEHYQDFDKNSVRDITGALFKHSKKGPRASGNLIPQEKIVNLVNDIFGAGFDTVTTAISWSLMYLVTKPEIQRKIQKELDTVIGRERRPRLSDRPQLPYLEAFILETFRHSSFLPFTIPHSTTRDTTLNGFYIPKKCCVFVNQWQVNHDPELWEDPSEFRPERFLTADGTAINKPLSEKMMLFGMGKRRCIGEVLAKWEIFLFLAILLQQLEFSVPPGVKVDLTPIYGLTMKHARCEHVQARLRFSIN

Cytochrome P450 2C19 = Cytochrome P450 2C19 (Homo sapiens, UniProt P33261); assay: Cytochrome panel assay with activity outcomes. Panel member name: p450-cyp2c19 Compounds with AC50 equal or less than 10 uM are considered active; assay type: functional
Cytochrome P450 2C19, sequence (P33261 whole entry): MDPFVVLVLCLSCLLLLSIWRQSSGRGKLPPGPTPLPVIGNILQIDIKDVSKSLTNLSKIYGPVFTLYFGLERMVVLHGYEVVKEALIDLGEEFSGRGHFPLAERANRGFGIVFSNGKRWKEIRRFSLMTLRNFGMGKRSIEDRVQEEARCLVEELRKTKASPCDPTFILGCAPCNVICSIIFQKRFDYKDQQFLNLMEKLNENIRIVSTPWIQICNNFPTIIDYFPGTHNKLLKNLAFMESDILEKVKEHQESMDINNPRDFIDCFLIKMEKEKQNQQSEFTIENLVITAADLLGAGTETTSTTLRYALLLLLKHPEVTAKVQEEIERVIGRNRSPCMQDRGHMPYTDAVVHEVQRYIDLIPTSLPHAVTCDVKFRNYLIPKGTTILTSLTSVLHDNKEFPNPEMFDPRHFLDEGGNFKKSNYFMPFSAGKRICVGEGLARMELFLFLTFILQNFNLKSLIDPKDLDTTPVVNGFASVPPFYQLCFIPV

[1] = Luminescence Cell-Based Dose Retest to Confirm Inhibitors of Cancer Stem Cells. [Related pubchem assays (depositor defined):AID2717, AID2721]; assay type: functional; details: Homo sapiens
H9c2 = assay: cells; assay type: functional, cell-based; details: Rattus norvegicus, H9c2, Myocardium;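 further: confirmatory concentration-response retest of ultra-high-throughput screening hits for modulation of myocardial damage; cell death induced by hydrogen peroxide oxidative stress; compound pretreatment for 60 min then peroxide exposure for 2 h; potency is for protecting the cells against peroxide damage rather than for killing them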
[2] = viability of uninfected HEp-2 cells – cell-based, HTS, cytotoxicity control for RSV inhibitor project, dose response (AID 2410); assay type: functional; details: human respiratory syncytial virus
[3] = tested on: Streptococcus sp. 'group A'; assay: Streptococcus pyogenes SK(-)GAS viability under kanamycin – luminescence, BacTiterGlo, confirmation, counter-screen for streptokinase expression inhibitor project, dose response (AID 1900); assay type: functional, organism-based
Streptokinase A = target: T2, Streptokinase A (Streptococcus pyogenes serotype M1, UniProt P10520); assay: viability-normalized secreted streptokinase activity reduction – plasminogen activation absorbance, OD405, dose response (AID 1914); assay type: functional, Streptococcus pyogenes M1 GAS;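 further: secreted streptokinase activity via plasminogen activation per viability signal from cell pellet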
T2 sequence (P10520 whole entry): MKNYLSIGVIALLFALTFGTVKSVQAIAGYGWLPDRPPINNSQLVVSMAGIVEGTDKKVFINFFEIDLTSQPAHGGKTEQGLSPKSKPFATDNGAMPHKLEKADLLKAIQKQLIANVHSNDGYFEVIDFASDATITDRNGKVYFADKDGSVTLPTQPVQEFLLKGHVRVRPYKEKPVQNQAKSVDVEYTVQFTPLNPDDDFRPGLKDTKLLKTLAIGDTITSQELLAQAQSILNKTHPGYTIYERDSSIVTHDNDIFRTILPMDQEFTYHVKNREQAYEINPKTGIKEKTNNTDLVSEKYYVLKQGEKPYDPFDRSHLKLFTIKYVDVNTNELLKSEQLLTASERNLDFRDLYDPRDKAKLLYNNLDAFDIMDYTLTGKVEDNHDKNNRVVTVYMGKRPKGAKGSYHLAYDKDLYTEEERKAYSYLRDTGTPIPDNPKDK

Streptococcus = assay: GAS UMAA2166 growth inhibition – luminescence, BacTiterGlo, counter-screen for streptokinase expression inhibitor project, dose response (AID 1915); assay type: functional, organism-based;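 further: potency for reduction of bacterial viability or growth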
Cytochrome P450 2D6 = Cytochrome P450 2D6 (Homo sapiens, UniProt P10635);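 further: CYP2D6 member of a cytochrome P450 panel assay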
Cytochrome P450 2D6, sequence (P10635 whole entry): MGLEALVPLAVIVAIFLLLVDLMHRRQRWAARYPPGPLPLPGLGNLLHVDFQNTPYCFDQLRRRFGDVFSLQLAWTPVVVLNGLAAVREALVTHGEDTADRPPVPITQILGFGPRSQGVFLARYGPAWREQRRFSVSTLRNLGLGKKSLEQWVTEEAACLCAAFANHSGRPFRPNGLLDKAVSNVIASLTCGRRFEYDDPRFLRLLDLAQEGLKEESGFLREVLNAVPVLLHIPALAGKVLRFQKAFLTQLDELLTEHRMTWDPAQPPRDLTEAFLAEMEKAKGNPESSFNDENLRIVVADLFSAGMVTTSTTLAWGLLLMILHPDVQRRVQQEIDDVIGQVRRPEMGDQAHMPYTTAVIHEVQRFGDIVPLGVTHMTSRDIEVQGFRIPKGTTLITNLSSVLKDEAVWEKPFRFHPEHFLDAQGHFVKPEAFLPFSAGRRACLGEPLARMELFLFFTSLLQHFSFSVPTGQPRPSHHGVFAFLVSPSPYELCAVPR

[4] = target: T3, Corticotropin-releasing factor receptor 2/Corticotropin-releasing factor-binding protein (Homo sapiens, UniProt P24387+Q13324); assay: Dose Response confirmation of uHTS hits for small molecule antagonists of the CRF-binding protein and CRF-R2 receptor complex.; assay type: functional; details: read-out: IC50_Mean
T3 sequence (Q13324 whole entry): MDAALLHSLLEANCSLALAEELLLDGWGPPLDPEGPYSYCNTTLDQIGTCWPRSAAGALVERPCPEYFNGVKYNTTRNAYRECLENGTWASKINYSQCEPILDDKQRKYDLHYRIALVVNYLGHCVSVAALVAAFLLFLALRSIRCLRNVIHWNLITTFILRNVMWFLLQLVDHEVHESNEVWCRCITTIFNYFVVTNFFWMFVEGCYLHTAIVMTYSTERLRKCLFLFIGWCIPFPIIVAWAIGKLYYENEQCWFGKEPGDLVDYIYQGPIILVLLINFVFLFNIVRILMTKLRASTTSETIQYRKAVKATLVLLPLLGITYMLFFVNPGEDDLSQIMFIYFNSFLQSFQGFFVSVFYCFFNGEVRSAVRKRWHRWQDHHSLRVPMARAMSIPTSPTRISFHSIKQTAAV
T3 sequence (P24387 whole entry): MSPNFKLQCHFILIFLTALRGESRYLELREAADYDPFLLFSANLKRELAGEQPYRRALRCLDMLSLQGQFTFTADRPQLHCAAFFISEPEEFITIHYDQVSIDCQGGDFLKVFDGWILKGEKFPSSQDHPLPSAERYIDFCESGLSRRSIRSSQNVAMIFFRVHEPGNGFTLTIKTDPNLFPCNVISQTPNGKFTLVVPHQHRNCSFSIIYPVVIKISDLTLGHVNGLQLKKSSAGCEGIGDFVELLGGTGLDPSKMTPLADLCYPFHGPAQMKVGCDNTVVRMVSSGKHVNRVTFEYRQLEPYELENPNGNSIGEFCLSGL

[5] = target: T3, Corticotropin-releasing factor receptor 2/Corticotropin-releasing factor-binding protein; assay: activators of CRF receptor 2 with binding protein – uHTS hits, confirmation (AID 602473); assay type: functional; details: read-out: EC50_Mean
[6] = Trypanosoma cruzi growth suppression in host cells – NIH3T3 host cells, beta-gal luminescence, confirmation (AID 2044); assay type: functional, cell-based;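 further: intracellular parasites grown in NIH/3T3 mouse fibroblasts as host cells; luminescent beta-galactosidase reporter signal from transgenic T. cruzi replicating inside host cells; inhibitors lower the luminescence signal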
[7] = NIH3T3 cell viability loss – ATP luminescence, mouse fibroblasts, counter-screen, dose response (AID 2010); assay type: functional, cell-based;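 further: cells exposed to compound for about 90 hours before reading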
[8] = Luminescence Cell-Based Dose Response HTS to Identify Activators of Luciferase Translation or Activity in H4 […] Cells. [Related pubchem assays: 1829 (Project Summary), 1814 (Primary HTS)]; assay type: functional
H4 = assay: Luminescence Cell-Based Dose Response HTS to Identify Activators of 5'UTR Stem-Loop Driven Prion Protein mRNA Translation in H4 Neuroglioblastoma Cells. [Related pubchem assays: 1829 (Project Summary), 1814 (Primary HTS)]; assay type: functional; details: Homo sapiens
Paired box protein Pax-8 = Paired box protein Pax-8 (Homo sapiens, UniProt Q06710); assay: PAX8 transcriptional activity inhibition in RMG-I – RMG-I cells, luciferase, cherry-pick, dose response (AID 687027); assay type: functional, cell-based;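 further: luciferase reporter driven by Pax8 target thyroperoxidase promoter measured by SteadyGlo luminescence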
Paired box protein Pax-8, sequence (Q06710 whole entry): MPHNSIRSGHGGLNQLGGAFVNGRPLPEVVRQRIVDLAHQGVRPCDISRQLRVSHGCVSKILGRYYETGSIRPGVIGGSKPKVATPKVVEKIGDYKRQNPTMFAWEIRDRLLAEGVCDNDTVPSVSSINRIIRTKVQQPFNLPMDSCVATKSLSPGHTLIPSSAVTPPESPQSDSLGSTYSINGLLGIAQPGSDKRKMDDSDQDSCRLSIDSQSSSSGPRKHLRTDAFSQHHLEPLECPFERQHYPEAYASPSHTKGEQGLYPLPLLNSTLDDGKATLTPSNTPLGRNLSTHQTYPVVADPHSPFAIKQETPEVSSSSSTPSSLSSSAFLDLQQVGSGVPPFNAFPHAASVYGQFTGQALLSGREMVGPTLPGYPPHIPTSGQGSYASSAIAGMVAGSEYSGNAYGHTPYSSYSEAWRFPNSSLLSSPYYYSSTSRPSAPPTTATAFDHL

COc1ccc(C(=O)N2CCC[C@@]3(CCN(Cc4ccccc4)C3)C2)cc1
AC50 (Cytochrome P450 1A2): 12.6 µM (inconclusive)

Cc1cnc(CNc2cc(-c3ccoc3)ncn2)cn1
AC50 (Cytochrome P450 1A2): 25.1 µM (inconclusive)

CCN(CCCNC(=O)C1CCN(S(=O)(=O)CC)CC1)c1cccc(C)c1
AC50 (Cytochrome P450 2C19; read-out: AC50): 39.8 µM (inconclusive) | AC50 (Cytochrome P450 1A2): 31.6 µM (inconclusive)

O=c1c(Cl)c(NCc2ccc(F)cc2)cnn1C12CC3CC(CC(C3)C1)C2
AC50 [1]: 0.913 µM (active)

O=C(c1cc(-c2cccnc2)nc2ccc(Br)cc12)N1CCN(c2ncccn2)CC1
IC50 (H9c2): > 79 µM (inactive)

COCCn1c(=O)c(-c2ccc(Cl)cc2)nc2cnc(N3CCOCC3)nc21
AC50 (Cytochrome P450 1A2): 1 µM (inconclusive)

c1ccc2sc(SCSc3nc4ccccc4s3)nc2c1
CC50 [2]: 29.5 µM (active) | EC50 [3]: > 150 µM (not active) | EC50 (Streptokinase A): > 150 µM (not active) | EC50 (Streptococcus): > 150 µM (not active) | AC50 (Cytochrome P450 2D6): 2.51 µM (inconclusive)

Brc1ccc(-c2noc(CCc3ccccc3)n2)cc1
CC50 [2]: 47.7 µM (active)

COc1ccc(CNC(=O)c2sc(=S)n(-c3ccc(OC)cc3)c2N)cc1
IC50 [4]: > 47.1 µM (inactive) | EC50 [5]: > 53 µM (inactive)

COc1ccc(-c2oc3c4c(cc(OC)c3c(=O)c2CC=C(C)C)OC(C)(C)C=C4)c(OC)c1
EC50 [6]: 2.08 µM (active) | EC50 [7]: > 60 µM (not active) | AC50 [1]: 6.2 µM (active)

c1cc2cc(-c3c(-c4ccc5c(c4)OCO5)noc3-c3ccsc3)ccc2[nH]1
CC50 [2]: 44.8 µM (active) | AC50 [1]: 1.69 µM (active)

COC(=O)[C@@H]1[C@@H]2C[C@H]3c4[nH]c5cc(OC)ccc5c4CCN3C[C@@H]2C[C@H](OC(=O)c2cc(OC)c(OC)c(OC)c2)[C@H]1OC
AC50 (Cytochrome P450 1A2): 15.8 µM (inconclusive)

N#C/C(=C\c1ccc(OCC(N)=O)cc1)c1ccccc1
CC50 [2]: 36.8 µM (active)

COc1ccc(CN(C(=O)c2nsc(Cl)c2Cl)C(C(=O)NC2CCCC2)c2ccc(OC)cc2)cc1 (centres undefined)
EC50 [5]: > 53 µM (inactive)

CC1Cc2cc(S(=O)(=O)N3CCCCC3C)ccc2N1C(=O)C1CCC1 (centres undefined)
CC50 [2]: 20.8 µM (active)

CC#CC(=O)N1CCC(C(=O)Nc2ccc(Oc3ccccc3)nc2)CC1
EC50 [8]: 25.4 µM (active) | EC50 (H4): 73 µM (active)

CC(=O)Nc1ccc(-c2csc(NC(=O)CCCc3cccs3)n2)cc1
AC50 [1]: 7.57 µM (active)

COC(=O)c1cc(NC(=O)c2cc3ccccc3o2)cc(C(=O)OC)c1
IC50 (H9c2): > 79 µM (inactive)

Oc1ccc(C[C@H]2CN=C(S)N2CCc2cc(C(F)(F)F)cc(C(F)(F)F)c2)cc1
CC50 [2]: 28.9 µM (active)

Cn1cccc1C(=O)N1CCC2(CCCN(c3ccccc3)C2)CC1
AC50 (Cytochrome P450 1A2): 10 µM (inconclusive)

COc1ccc(C(=O)COC(=O)Cc2nnc(O)c3ccccc23)c(OC)c1
IC50 (H9c2): > 79 µM (inactive)

Cc1c(-c2cccc(Cl)c2)nc2ccccc2c1C(=O)OCC(=O)Nc1ccc2c(c1)OCO2
CC50 [2]: 16.3 µM (active) | EC50 [6]: 2.22 µM (active) | EC50 [7]: > 60 µM (not active)

CCCCNc1c(-c2ccc(OC)c(SC3CCCCC3)c2)nc2cc(C)ccn12
EC50 [3]: 3.09 µM (active) | EC50 (Streptokinase A): 9.9 µM (active) | EC50 (Streptococcus): 10.1 µM (active) | AC50 [1]: 4.36 µM (active)

Cc1ccc(-n2nnnc2C(=Cc2ccc(N(C)C)cc2)c2nnnn2-c2ccc(C)cc2)cc1
AC50 (Cytochrome P450 2D6): 15.8 µM (inconclusive) | AC50 (Cytochrome P450 1A2): 12.6 µM (inconclusive)

CC(C)(C)C1COc2ccccc2N1C(=O)c1ccccc1Cl (centres undefined)
EC50 [5]: 11.3 µM (active)

CCCN1CCc2c(sc(NC(=O)c3ccc(S(=O)(=O)N(C)c4ccccc4)cc3)c2C(N)=O)C1
EC50 [5]: 4.43 µM (active)

COc1ccc(/C=C(\C#N)C(=O)c2c(C)[nH]c3ccccc23)cc1OC
IC50 (H9c2): > 79 µM (inactive)

CCOC(=O)c1c(-c2cccs2)csc1NC(=O)C(C)(C)C
CC50 [2]: 49.8 µM (active)

Oc1nc2cc(F)ccc2c2ccc(F)cc12
IC50 (H9c2): > 79 µM (inactive)

CCN(CC)C(=O)c1ccc(-c2nnc(Nc3ccc(O)cc3)c3ccccc23)cc1
IC50 (H9c2): 14.2 µM (active)

O=C(O)[C@@H]1CCCN1Cc1cc2ccccc2c2ccccc12
AC50 (Cytochrome P450 1A2): 6.31 µM (inconclusive)

CC(C)(C)OC(=O)NCCCCCNC(=O)c1[nH]cnc1C(=O)Nc1cc(Br)ccc1F
IC50 (H9c2): > 79 µM (inactive)

CC(=O)c1ccc(-c2cnc3c(NC=O)cc(-c4cccc(C(=O)N(C)C)c4)cn23)cc1
IC50 (H9c2): 11.2 µM (active)

Cc1nn(-c2ccccc2)c(C)c1/C=N/NC(=O)c1cc(C(C)(C)C)[nH]n1
IC50 (H9c2): 12.2 µM (active)

O=C(N/N=C\c1ccccn1)C1COc2cc3ccccc3cc2O1 (centres undefined)
IC50 (H9c2): > 79 µM (inactive)

Cc1ccc(S(=O)(=O)N(C)C[C@H]2Oc3c(NC(=O)Nc4ccc(F)cc4)cccc3C(=O)N([C@@H](C)CO)C[C@H]2C)cc1
AC50 (Paired box protein Pax-8): 11.5 µM (active)

COc1ccccc1N(CC(=O)N/N=C/c1ccc(OCC(=O)NCc2ccco2)cc1)S(=O)(=O)c1ccc(C)cc1
CC50 [2]: 42.5 µM (active)

C/C(=N\NC(N)=O)c1ccccc1Cl
CC50 [2]: 19.4 µM (active)

N=C(N/N=C\c1ccc(Br)cc1)N/N=C\c1ccc(Br)cc1
EC50 [3]: 2.39 µM (active) | EC50 (Streptococcus): 5.33 µM (active) | AC50 [1]: 3.04 µM (active)

CN(C(=O)CCCOc1ccc2[nH]c(=O)ccc2c1)C1CCCCC1 [CILOSTAMIDE]
AC50 (Cytochrome P450 2C19): inconclusive | AC50 (Cytochrome P450 1A2): 31.6 µM (inconclusive)
